Results published in PMC3596500 (Pharmaceutical research, 2012).
“Also recorded” adds a separate entry of the source. Read-outs that look alike come from different tables or passages of the source. Each block holds one compound with its values, some of them ahead of it. Square brackets hold non-standard residues; d marks the D form. Peptide text beside a SMILES is read from it. Sar = CNCC(=O)O

What was measured:
PepT1 [1] = biological target: T1, PepT1 (Mus musculus, UniProt Q9JIP7); experiment: Co-perfusion of cefadroxil with dimethyl-amiloride; details: 0.1 mM DMA co-perfused with 10 μM cefadroxil, pH 6.5, wild-type mice
T1 sequence (Q9JIP7 1-709): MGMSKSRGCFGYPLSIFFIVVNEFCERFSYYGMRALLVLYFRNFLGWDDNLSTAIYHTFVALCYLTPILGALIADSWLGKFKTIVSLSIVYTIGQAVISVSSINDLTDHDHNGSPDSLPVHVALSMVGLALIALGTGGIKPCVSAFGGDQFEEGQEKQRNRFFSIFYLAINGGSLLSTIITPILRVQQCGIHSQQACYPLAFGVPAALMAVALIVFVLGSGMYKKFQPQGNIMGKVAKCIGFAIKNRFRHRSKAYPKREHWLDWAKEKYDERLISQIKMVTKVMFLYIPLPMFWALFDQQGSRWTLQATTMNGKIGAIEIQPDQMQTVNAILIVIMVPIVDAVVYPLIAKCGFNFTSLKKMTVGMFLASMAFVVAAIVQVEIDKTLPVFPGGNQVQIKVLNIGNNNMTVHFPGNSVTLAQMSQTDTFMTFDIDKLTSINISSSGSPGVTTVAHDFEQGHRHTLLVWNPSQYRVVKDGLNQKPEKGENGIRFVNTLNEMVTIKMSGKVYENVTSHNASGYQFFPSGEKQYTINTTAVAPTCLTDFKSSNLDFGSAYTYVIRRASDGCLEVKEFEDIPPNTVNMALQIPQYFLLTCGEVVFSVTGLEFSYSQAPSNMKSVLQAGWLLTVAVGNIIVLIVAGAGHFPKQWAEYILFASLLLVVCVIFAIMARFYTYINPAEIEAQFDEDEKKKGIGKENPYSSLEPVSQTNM

PepT1 [2] = biological target: T1, PepT1; details: 25 mM inhibitor co-perfused with 10 μM cefadroxil, pH 6.5, wild-type mice
[3] = after oral dipeptide administration; cited from earlier work
PepT1 [4] = details: cited from earlier work
PepT1 [5] = biological target: T1, PepT1; details: jejunum, wild-type mice, pH 6.5
[6] = mouse, in vivo, po
[7] = cited from earlier work
PepT1 [8] = biological target: T1, PepT1; experiment: pH-dependent jejunal permeability of cefadroxil, in situ perfusion; type: in vivo; details: 10 μM cefadroxil, jejunum, wild-type mice, pH 5.5 to 7.5
[9] = in situ perfusions in proximal small intestine, cited from earlier work
PepT1 [10] = details: PepT1 cRNA-injected Xenopus oocytes; cited from earlier work
[11] = cited from earlier work; remark: listed apart in the source
PepT1 [12] = biological target: T1, PepT1; type: in vivo, mice; details: wild-type mice, 10 μM cefadroxil, pH 6.5
PepT1 [13] = type: in vivo, mice; details: for Peff: 10 μM cefadroxil, pH 6.5
Caco-2 cells = details: cited from earlier work

SMILES: CN(C)c1nc(N)c(C(=O)NC(=N)N)nc1Cl [DMA, 5-(N,N-dimethyl)amiloride]
effect on PepT1-mediated jejunal permeability/uptake of cefadroxil (PepT1 [1]): inhibited
reduction of cefadroxil permeability (PepT1 [1]): about 60%

SMILES: NCC(=O)O [Gly, glycine]
effect on jejunal effective permeability of cefadroxil (PepT1 [2]): no significant effect

effect on jejunal effective permeability of cefadroxil (PepT1 [2]): significantly decreased
SMILES: NCC(=O)N1CCC[C@H]1C(=O)O [GlyPro, glycylproline] (H-Gly-Pro-OH)

effect on jejunal effective permeability of cefadroxil (PepT1 [2]): significantly decreased
SMILES: CN(CC(=O)O)C(=O)CN [GlySar, glycylsarcosine] (H-Gly-[Sar]-OH)
reduction (systemic exposure) in PepT1 knockout vs. wild-type mice [3]: ~2 fold
increase of permeability (PepT1 [4]; pH 5.5, in situ perfusion, mice): 36%

effect on jejunal effective permeability of cefadroxil (PepT1 [2]): no significant effect
SMILES: N[C@@H](Cc1c[nH]cn1)C(=O)O [L-His, L-histidine]

effect on jejunal effective permeability of cefadroxil (PepT1 [2]): no significant effect
SMILES: CNC(=O)c1cccnc1 [NMN, N-methylnicotinamide]

SMILES: CC[N+](CC)(CC)CC [TEA]
effect on jejunal effective permeability of cefadroxil (PepT1 [2]): lack of effect

K′m (apparent) (PepT1 [5]; based on bulk fluid (inlet) concentrations): 3.8 ± 1.2 mM
Vmax (intrinsic) (PepT1 [5]; referenced to membrane surface concentration Cw): 4.5 ± 0.3 nmol/cm^2/sec
Tmax increase, PepT1 knockout vs wild-type [6]: ~4 fold
Peff (PepT1 [12]; duodenum): 49 ×10⁻⁶ cm/s
Peff (PepT1 [12]; ileum): 88 ×10⁻⁶ cm/s
Peff (PepT1 [12]; jejunum): 80 ×10⁻⁶ cm/s
Peff (PepT1 [13]; PepT1 knockout mice, colon): 3.2 ×10⁻⁶ cm/s
Peff (PepT1 [13]; PepT1 knockout mice, ileum): 4.2 ×10⁻⁶ cm/s
Peff (PepT1 [13]; PepT1 knockout mice, jejunum): 9 ×10⁻⁶ cm/s
difference between genotypes in the permeability in colon (PepT1 [13]; colon, wild-type vs PepT1 knockout): no significant difference
permeability in PepT1 knockout mice as compared to wild-type mice (PepT1 [13]; duodenum): 4%
permeability in PepT1 knockout mice as compared to wild-type mice (PepT1 [13]; ileum): 5%
permeability in PepT1 knockout mice as compared to wild-type mice (PepT1 [13]; jejunum): 12%
Peff (PepT1 [13]; wild-type mice, colon): 6.4 ×10⁻⁶ cm/s
SMILES: CC1=C(C(=O)O)N2C(=O)[C@@H](NC(=O)[C@H](N)c3ccc(O)cc3)[C@H]2SC1 [cefadroxil]
half-life [7]: ~ 95 min
effect of perfusate pH on effective permeability (PepT1 [8]): no significant differences; also recorded: not significantly affected
Michaelis constant ([9]; ref 12): 5.9 mM
Michaelis constant ([9]; ref 13): 6.6 mM
Michaelis constant (PepT1 [10]): 1.1 mM
binding to plasma proteins [11]: about 20%
decrease of uptake (Caco-2 cells; further reducing the pH to 5.5): 50%
increase of drug uptake (Caco-2 cells; shifting the pH from 7.4 to 6.0): about 4 fold
effect on jejunal permeability of GlySar (PepT1 [4]; co-perfusion of cefadroxil at saturating concentrations, wild-type mice): significantly reduced

SMILES: CC(=O)OCC1=C(C(=O)O)N2C(=O)[C@@H](NC(=O)Cc3cccs3)[C@H]2SC1 [cephalothin]
effect on jejunal effective permeability of cefadroxil (PepT1 [2]): not affected; also recorded: no significant effect; also recorded: lack of effect
